The values that follow come from patent publication EP2951180B1, “2,6,7,8 SUBSTITUTED PURINES AS HDM2 INHIBITORS” (Merck Sharp & Dohme Corp., priority 2013, dated 2014).

The assay concerns the target T1, HDM2 (Homo sapiens, UniProt Q00987).
T1 construct: Thioredoxin (N); made in house; host or cells: E. coli strain BL21(DE3)Rosetta
The experiment in a line: HDM2 FRET assay (inhibition of binding of FITC labeled p53-pocket peptide to HDM2). The settings on record: read-out: FRET IC50. In short, it runs like this:
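TR-FRET with 0.5 nM His-tagged recombinant HDM2, 3 nM FITC-labelled p53 peptide and 0.25 nM Tb-anti-His antibody in PBS, 0.01% BSA, 0.01% Tween-20, 0.1% DMSO. IC50 from em520/em495 ratio over 10-point dilutions, 4-parameter logistic fit.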

Where [1] appears, read: 0.5 nM HDM2 (residues 17 to 125), 3nM peptide, two hour incubation at room temperature.

Like-named read-outs stand apart in the source and are kept apart here.

T1 sequence (Q00987 17-125): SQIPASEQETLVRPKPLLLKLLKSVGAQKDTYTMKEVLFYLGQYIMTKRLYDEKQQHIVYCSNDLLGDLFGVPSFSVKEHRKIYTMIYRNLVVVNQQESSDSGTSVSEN

Consider `C[C@H]1CC[C@H](Cn2c(N3CCOC[C@H]3c3ccccc3)nc3nc(-c4noc(=O)[nH]4)nc(-c4cncc(Cl)c4)c32)CC1` [Example 16.26, 3-{6-(5-chloropyridin-3-yl)-7-[(trans-4-methylcyclohexyl)methyl]-8-[(3R)-3-phenylmorpholin-4-yl]-7H-purin-2-yl}-1,2,4-oxadiazol-5(4H)-one], for which, under setting [1], the half-inhibitory concentration (IC50) is 0.517 nM.
On to `C[C@@H](Nc1nc(C(=O)O)nc2nc(C3CCCCC3c3ccccc3)n(Cc3ccc(C(F)(F)F)cc3)c12)C1CCC1` (single isomer, unassigned) [Example 21.2], for which the 50% inhibitory concentration (IC50) (Table 21) is 2.36 nM.
Turning to `Cc1cc(Cl)cc(-c2nc(-c3noc(=O)[nH]3)nc3nc(N4CCOC[C@H]4c4ccccc4)n(C[C@H]4CC[C@H](C)CC4)c23)c1` [Example 16.114, 3-{6-(3-chloro-5-methylphenyl)-7-[(trans-4-methylcyclohexyl)methyl]-8-[(3R)-3-phenylmorpholin-4-yl]-7H-purin-2-yl}-1,2,4-oxadiazol-5(4H)-one], the 50% inhibitory concentration (IC50) under setting [1] was 1.56 nM.
For the compound `C[C@@H](Nc1nc(C(=O)O)nc2nc(C3(c4ccccc4)CC3)n(C[C@H]3CC[C@H](C)CC3)c12)C1CCC1` [Example 20.4, 6-{[(1R)-1-cyclobutylethyl]amino}-7-[(trans-4-methylcyclohexyl)methyl]-8-(1-phenylcyclopropyl)-7H-purine-2-carboxylic acid], the IC50 (Table 20) amounted to 2.58 nM.
`C[C@@H](Nc1nc(C(=O)O)nc2nc(C3CCCCC3)n(C[C@H]3CC[C@H](C)CC3)c12)C1CCC1` [Example 21.38, 6-{[(1R)-1-cyclobutylethyl]amino}-8-cyclohexyl-7-[(trans-4-methylcyclohexyl)methyl]-7H-purine-2-carboxylic acid]: the IC50 (Table 21) was 2.68 nM.
In the case of `CC(O)c1nc2nc(-c3noc(=O)[nH]3)nc(N[C@H](C)C3CCC3)c2n1C[C@H]1CC[C@H](C)CC1` (single isomer, unassigned) [Example 22.14], for the setting “Table 22”, the 50% inhibitory concentration (IC50) stood at 81.1 nM.
For `C[C@@H]1CN(C)C(=O)CN1c1nc2nc(-c3noc(=O)[nH]3)nc(-c3cccc(Cl)c3)c2n1C[C@H]1CC[C@H](C)CC1` [Example 16.68, (5R)-4-[6-(3-chlorophenyl)-7-[(trans-4-methylcyclohexyl)methyl]-2-(5-oxo-4,5-dihydro-1,2,4-oxadiazol-3-yl)-7H-purin-8-yl]-1,5-dimethylpiperazin-2-one], the concentration for half-maximal inhibition (IC50) under setting [1] came to 11.5 nM.
Regarding `C[C@H]1CC[C@H](Cn2c(N3CCO[C@H]4CCC[C@@H]43)nc3nc(-c4n[nH]c(=O)o4)nc(-c4cncc(Cl)c4)c32)CC1` [Example 16.91, 5-{6-(5-chloropyridin-3-yl)-8-[(4aS,7aS)-hexahydrocyclopenta [b][1,4]oxazin-4(4aH)-yl]-7-[(trans-4-methylcyclohexyl)methyl]-7H-purin-2-yl}-1,3,4-oxadiazol-2(3H)-one], the IC50 under setting [1] stood at 403 nM.
On to `CC1CCCN(c2nc3nc(C(=O)O)nc(N[C@H](C)C4CCC4)c3n2C[C@H]2CC[C@H](C)CC2)C1c1ccccc1` (stereo partly drawn) [Example 11.6, 6-(((R)-1-cyclobutylethyl)amino)-8-(3-methyl-2-phenylpiperidin-1-yl)-7-((trans-4-methylcyclohexyl)methyl)-7H-purine-2-carboxylic acid], for which, where the note is “Table 11”, the IC50 turned out to be 1.82 nM.
As for `C[C@H]1CC[C@H](Cn2c(N3CCO[C@H]4CCC[C@@H]43)nc3nc(-c4noc(=O)[nH]4)nc(-c4cncc(Cl)c4)c32)CC1` [Example 16.86, 3-{6-(5-chloropyridin-3-yl)-8-[(4aS,7aS)-hexahydrocyclopenta [b][1,4]oxazin-4(4aH)-yl]-7-[(trans-4-methylcyclohexyl)methyl]-7H-purin-2-yl}-1,2,4-oxadiazol-5(4H)-one], under setting [1], the IC50 amounted to 344 nM.
`C[C@@H](Nc1nc(-c2nnc[nH]2)nc2nc(N3CCOC[C@H]3c3ccccc3)n(C[C@H]3CC[C@H](C)CC3)c12)C1CCC1` [Example 12.16, N-[(1R)-1-cyclobutylethyl]-7-[(trans-4-methylcyclohexyl)methyl]-8-[(3R)-3-phenylmorpholin-4-yl]-2-(4H-1,2,4-triazol-3-yl)-7H-purin-6-amine]: the concentration for half-maximal inhibition (IC50) under setting [1] was 10.8 nM.
With `C[C@@H](Nc1nc(C(=O)O)nc2nc(N3CCCCC3Cc3cccc(C(F)(F)F)c3)n(Cc3ccc(C(F)(F)F)cc3)c12)C1CCC1` (stereo partly drawn) [Example 9.68, 6-{[(1R)-1-cyclobutylethyl]amino}-7-[4-(trifluoromethyl)benzyl]-8-{2-[3-(trifluoromethyl)benzyl]piperidin-1-yl}-7H-purine-2-carboxylic acid], under “Table 9”, the IC50 was found to be 110 nM.
Turning to `COc1ccc(C)cc1-c1nc2nc(C(=O)O)nc(N[C@H](C)C3CC(F)(F)C3)c2n1Cc1ccc(C(F)(F)F)cc1` [Example 7.17, 6-{[(1R)-1-(3,3-difluorocyclobutyl)ethyl]amino}-8-(2-methoxy-5-methylphenyl)-7-[4-(trifluoromethyl)benzyl]-7H-purine-2-carboxylic acid], where the note is “Table 7”, the half-maximal inhibitory concentration (IC50) is 58.9 nM.
Regarding `C[C@H](CO)Nc1nc2nc(C(=O)O)nc(N[C@H](C)C3CCC3)c2n1Cc1ccc(C(F)(F)F)cc1` [Example 9.7, 6-{[(1R)-1-cyclobutylethyl]amino}-8-{[(1R)-2-hydroxy-1-methylethyl]amino}-7-[4-(trifluoromethyl)benzyl]-7H-purine-2-carboxylic acid], the IC50 (Table 9) worked out at 35.8 nM.
Consider `C[C@@H](Nc1nc(-c2noc(=O)[nH]2)nc2nc(N(C)CC3CCOCC3)n(Cc3ccc(C(F)(F)F)cc3)c12)C1CCC1` [Example 9.93, 3-(6-{[(1R)-1-cyclobutylethyl]amino}-8-[methyl(tetrahydro-2H-pyran-4-ylmethyl)amino]-7-[4-(trifluoromethyl)benzyl]-7H-purin-2-yl)-1,2,4-oxadiazol-5(4H)-one], for which, for the setting “Table 9”, the 50% inhibitory concentration (IC50) came to 47 nM.
For the compound `C[C@H]1CC[C@H](Cn2c(N3CCOC[C@H]3c3ccccc3)nc3nc(-c4noc(=O)[nH]4)nc(-c4cc(Cl)cc(CO)c4)c32)CC1` [Example 16.44, 3-{6-[3-chloro-5-(hydroxymethyl)phenyl]-7-[(trans-4-methylcyclohexyl)methyl]-8-[(3R)-3-phenylmorpholin-4-yl]-7H-purin-2-yl}-1,2,4-oxadiazol-5(4H)-one], the half-inhibitory concentration (IC50) under setting [1] came out at 0.205 nM.
In the case of `CC(C)c1ccnc(-c2nc3nc(C(=O)O)nc(N[C@H](C)C4CCC4)c3n2CC2CCC(C)(C)CC2)c1` [Example 18.8, (R)-6-((1-cyclobutylethyl)amino)-7-((4,4-dimethylcyclohexyl)methyl)-8-(4-isopropylpyridin-2-yl)-7H-purine-2-carboxylic acid], the IC50 (Table 18) was 59.5 nM.
For `COc1cc(-c2nc(-c3noc(=O)[nH]3)nc3nc(N4CCOC[C@H]4c4ccccc4)n(C[C@H]4CC[C@H](C)CC4)c23)cc(Cl)n1` [Example 16.109, 3-{6-(2-chloro-6-methoxypyridin-4-yl)-7-[(trans-4-methylcyclohexyl)methyl]-8-[(3R)-3-phenylmorpholin-4-yl]-7H-purin-2-yl}-1,2,4-oxadiazol-5(4H)-one], the half-inhibitory concentration (IC50) under setting [1] amounted to 1.21 nM.
With `COC[C@H](Nc1nc2nc(-c3noc(=O)[nH]3)nc(-c3cccc(Cl)c3)c2n1C[C@H]1CC[C@H](C)CC1)c1ccccc1` [Example 16.85, 3-{6-(3-chlorophenyl)-8-{[(1R)-2-methoxy-1-phenylethyl]amino}-7-[(trans-4-methylcyclohexyl)methyl]-7H-purin-2-yl}-1,2,4-oxadiazol-5(4H)-one], under setting [1], the IC50 turned out to be 2.87 nM.
